{
  "source": "paper PMC12363935",
  "about": "“Unc-51 Like Kinase 3 (ULK3) is essential for autophagy and cell survival in multiple myeloma” (Research Square, 2025)",
  "system": "NTC CTRL U266 MM cells",
  "experiment": "NTC CTRL U266 in vivo model",
  "conditions": "10 mg/kg/day subcutaneously",
  "description": "Supplementary Figure 7. ULK3 ablation suppresses MM cell growth. A. Immunoblotting for ULK3 expression in parental, NTC CTRL and ULK3 KO U266 cells. Of note, NTC CTRL and ULK3 KO were used for the in vivo ULK3 KO model. Densitometric quantification values are annotated on the blot. B. Mice (n = 20/group) were tail vein injected […]\nwith 1 x106 NTC CTRL and ULK3 KO U266 MM cells. […]\nonset of the disease compared to NTC CTRL . (C) Representative confocal microscopy images of formalin fixed, paraffin embedded tumors (5-micron sections), stained for human mitochondria (hMITO) as a readout of MM cells colocalization. Alexa Fluor Plus 488 goat anti-mouse were used as secondary antibody. (D) MTS showing the inhibitory profile of MA9060 on NTC CTRL and ULK3 KO for U266 cell line. Treatment with MA9060 (0-100 uM) for 48h show reduced activity of MA9060 in ULK3 KO cell lines. E. Mice were divided respectively in two groups, vehicle control (n = 10, β-HCD Captisol) or MA9-060 (n = 10). Treatment started at day 20 (M-F, 10 mg/kg/day subcutaneously). MA9-060 treatment improves overall survival in the NTC CTRL arm (median 41 days post-tumor […]\n38 For MA9 therapy efficacy, mice were treated with vehicle (n=10) or MA9 (10 mg/kg/day, 39 subcutaneously, M-F from day 20; n=10) (Supplementary Fig. 7E, F). Survival and toxicity 40 (weight, clinical signs) was monitored. […]",
  "data": [
    {"smiles": "Cc1cnc(Nc2ccc(C3CCN(C)CC3)c(F)c2)nc1Nc1ccc(Cl)c(NS(=O)(=O)C(C)(C)C)c1", "note": "[MA9060]", "values": [
      {"measurement": "toxicity (weight loss <20%, ruffled hair)", "value": "did not show any signs of toxicity"},
      {"measurement": "median overall survival", "setting": "NTC CTRL arm, M-F from day 20", "value": 41, "unit": "days"}
    ]}
  ]
}
